The test system of data set [1] is mouse liver cancer cell line (Hepa1-6). The data set is described as follows: Genomic DNA fragmentation by gel electrophoresis. The class given is cell-based. The note with it: Hepa1-6, 24 hours, FIG. 3. Here is the method: The cell-killing effect of ginsenoside F2 on the mouse liver cancer cell line (Hepa1-6) was confirmed by confirming the degree of DNA degradation.
Specifically, the ginsenoside F2 prepared in Example 1 was treated to the mouse liver cancer cell line (Hepa1-6) at various concentrations ([…]). After 24 hours, the cells were harvested, and the genomic DNA was extracted using a genomic DNA extraction kit (iNtRON, USA) according to the experimental method provided by the manufacturer, and subsequently, a gel electrophoresis was carried out.

The subject of another data set is Hepa1-6 cells. The data set is described as follows: Cell survival rate (EZ-CYTOX), mouse liver cancer cell line. The class given is cell-based. Particulars: 10 to 60 μM, 24 hours, FIG. 1b. The method, then:
(§1) The ginsenoside F2 prepared in Example 1 was treated to Hep3B cells, a human liver cancer cell line, Hepa1-6 cells, a mouse liver cancer cell line, and mouse normal hepatocytes at various concentrations (10 to 60 μM). After 24 hours, the survival rate of the cells was measured using EZ-CYTOX (Daeil Lab Service, Korea), which is used to measure the cell survival rate, according to the experimental method provided by the manufacturer.

Data set [2] deals with liver cancer-induced mice. The data set is described as follows: Liver histology (H&E) and flow cytometry of liver immune cells in liver cancer-induced mice. The class given is in vivo, mouse. The note with it: vs vehicle-treated group. Here is the method: (§2) Diethylnitrosamine (DEN), a hepatocarcinogen, was injected intraperitoneally into 14-day-old male mice at a concentration of 20 mg/kg to induce the formation of liver cancer. A vehicle (olive oil) or ginsenoside F2 (50 mg/kg) was treated three times a week from 20 weeks of age, and then 20 weeks later, the mice were sacrificed to confirm the inhibition of liver cancer formation.
The mice sacrificed in Example 3-1 above were cut open ventrally to remove the liver, and then H&E ([…] and eosin) staining was performed to observe the histological changes of the liver.
In order to specifically measure the activity of the immune cells, the immune cells were isolated from the removed liver, and the stained cells were analyzed via a flow cytometer (LSRII, BD bioscience) using the markers shown in Table 1.
In general terms: A flow cytometer gives signals particle by particle.

Data set [3] deals with human liver cancer cell line (Hep3B). The data set is described as follows: Cell death by phase contrast microscopy and DAPI/TUNEL staining. Particulars: 10 to 60 μM, 24 hours. The class given is cell-based. The method, then:
The cell-killing effect of ginsenoside F2 on the human liver cell line (Hep3B) was confirmed using a phase contrast microscope and a fluorescence microscope.
Specifically, the ginsenoside F2 prepared in Example 1 was treated to the human liver cancer cell line (Hep3B) at various concentrations (10 to 60 μM), and after 24 hours, the state of the cells was observed under the phase contrast microscope. Further, the cells were stained using DAPI (4′,6-diamidino-2-phenylindole, Vector laboratory, USA) and TUNEL (terminal deoxyribonucleotidyl transferase mediated dUTP nick end labeling, Roche life science, USA). The staining was carried out according to the method provided by the manufacturer, and the degree of staining was observed under the fluorescence microscope.

Data set [4] relates to liver cancer-induced mice. Nature of the data set: Diethylnitrosamine (DEN)-induced liver cancer formation in mice: size, number, weight of cancer tissues. The class given is in vivo, mouse. Particulars: 50 mg/kg three times a week for 20 weeks, vs vehicle-treated group. Here is the method:
as §2
The mice sacrificed in Example 3-1 above were cut open ventrally to remove the liver. Then, the size, number, and weight of the cancer tissues of the vehicle-treated group and the ginsenoside F2-treated group were compared.

The subject of data set [5] is liver cancer-induced mice. The data set is described as follows: Serum ALT and AST in liver cancer-induced mice (VetTEST). The class given is in vivo, mouse. Particulars: 50 mg/kg three times a week for 20 weeks, vs vehicle-treated group. Here is the method: as §2
Blood was collected from the abdominal aorta of the mice sacrificed in Example 3-1 above and centrifuged at 3,300 rpm for 10 minutes using a centrifuge, and then the serum was isolated only. Subsequently, the alanine aminotransferase (ALT), aspartate aminotransferase (AST) and triglyceride were measured by a VetTEST® (IDEXX, USA) according to the experimental method provided by the manufacturer using a kit provided by IDEXX Laboratories (USA).

The subject of another data set is mouse normal hepatocytes. The data set is described as follows: Cell survival rate (EZ-CYTOX), normal hepatocytes. The class given is cell-based. Particulars: 10 to 60 μM, 24 hours, FIG. 1c. Here is the method: as §1
In the next data set the test system is Hep3B cells. The data set is described as follows: Cell survival rate (EZ-CYTOX), human liver cancer cell line. The class given is cell-based. The note with it: 10 to 60 μM, 24 hours, FIG. 1a. Here is the method: as §1
[6] abbreviates: 50 mg/kg three times a week for 20 weeks, FIG. 6a.

On to `CC(C)=CCC[C@](C)(O[C@@H]1O[C@H](CO)[C@@H](O)[C@H](O)[C@H]1O)[C@H]1CC[C@]2(C)[C@@H]1[C@H](O)C[C@@H]1[C@@]3(C)CC[C@H](O[C@@H]4O[C@H](CO)[C@@H](O)[C@H](O)[C@H]4O)C(C)(C)[C@@H]3CC[C@]12C` [ginsenoside F2], for which the “fragmented genomic DNA” value in data set [1] is “increased with increasing concentration of ginsenoside F2”. The “survival rate of mouse liver cancer cell line (Hepa1-6)” value with Hepa1-6 cells is recorded as “decreased depending on the concentration of ginsenoside F2”. Moreover, in data set [2] (setting [6]), the “formation of liver cancer (H&E histology)” value is on record as “inhibited” and the “infiltration of immune cells near the liver cancer tissues (H&E)” value is “increased”. Also, in data set [2] (flow cytometry, FIG. 6b), the “number of CD8 T cells in liver” value was “increase”, the “number of macrophages in liver” value is given as “increase” and the “number of natural killer T cells in liver” value is on record as “increase”. The “cell death under phase contrast microscope” value in data set [3] (FIG. 2a) was “cell death of human liver cancer cell line (Hep3B) was induced”. The “number of cells stained to DAPI” value in data set [3] (fluorescence microscope) is “no difference”. Further, the “number of cells stained to TUNEL” value in data set [3] (fluorescence microscope, FIGS. 2a and 2b) is “increased depending on the concentration of ginsenoside F2”. Moreover, in data set [4], the body weight entry is listed as “no difference”, the “number of cancer tissues” value was “reduced more than twice”, the “size of cancer tissues” value is “significantly reduced” and the “weight of liver tissues” value is given as “reduced”. Also, the “serum ALT value” in data set [5] (FIG. 5a) is reported as “reduced”. Moreover, the “serum AST value” in data set [5] (FIG. 5b) is reported as “reduced”. Besides, the “survival rate of mouse normal hepatocytes” value with mouse normal hepatocytes is given as “almost no change was observed”. Moreover, the “survival rate of human liver cancer cell line (Hep3B)” value in the data set with Hep3B cells was “decreased depending on the concentration of ginsenoside F2”.
